Measurements published in ChEMBL document CHEMBL1158258, “Bioactive Isoquinoline Quinone from an Undescribed Philippine Marine Sponge of the Genus Xestospongia” (J Nat Prod, 1996).
Converted amounts (≈) assume the structure as drawn. The source made the active and inactive calls. The rule behind the calls is not given here.

Assays:
Staphylococcus aureus = assay: Antibacterial activity against Staphylococcus aureus ATCC 25923 at 100 ug after 24 hrs by agar plate diffusion assay; type: functional; details: ATCC 25923, 24 h, read-out: IZ
Escherichia coli = assay: Antibacterial activity against Escherichia coli ATCC 25922 at 100 ug after 24 hrs by agar plate diffusion assay; type: functional, organism-based
Bacillus subtilis = assay: Antibacterial activity against Bacillus subtilis 168 at 100 ug after 24 hrs by agar plate diffusion assay; type: functional; details: for zone of inhibition at 100 µg/disc: subsp. subtilis str. 168, 24 h, read-out: IZ
Spodoptera littoralis [1] = assay: Insecticidal activity against Spodoptera littoralis neonate larvae assessed as survival at 270 ppm in artificial diet after 6 days relative to control; type: functional
Spodoptera littoralis [2] = assay: Insecticidal activity against Spodoptera littoralis neonate larvae assessed as survival treated with artificial diet after 6 days; type: functional, organism-based

| Compound | zone of inhibition at 100 µg/disc (Staphylococcus aureus) | Activity (Escherichia coli) | zone of inhibition at 100 µg/disc (Bacillus subtilis) | Activity (Spodoptera littoralis [1]) | EC50 (Spodoptera littoralis [2]) | LC50 (Spodoptera littoralis [2]; Spodoptera littoralis, 144 h) | inhibition zone (IZ) (Bacillus subtilis; subsp. subtilis str. 168) |
| --- | --- | --- | --- | --- | --- | --- | --- |
| COC1=C(C)C(=O)c2ccnc(C)c2C1=O | 9 mm | inactive | 12 mm | 93% | 35 ppm | 521 µg/mL (≈ 2400 µM) |  |
| C/C=C(/C)C(=O)OCC1C2=C(C=CN1/C=C/C(C)=O)C(=O)C(C)=C(OC)C2=O (stereo not given) | 15 mm | inactive | 15 mm | 50% |  |  |  |
| C/C=C(/C)C(=O)OCc1nccc2c1C(=O)C(OC)=C(C)C2=O [RENIERONE] | 14 mm | inactive | 15 mm | 60% |  |  |  |
| GENTAMICIN |  |  |  |  |  |  | 16 mm |
